Measured values taken from ChEMBL document CHEMBL1909046, “DrugMatrix in vitro pharmacology data”.

Tests used:
[1] = biological target: T1, Cysteinyl leukotriene receptor 1 (Homo sapiens, UniProt Q9Y271); assay type: cell membranes, CHO-K1, Membrane; settings: cho-k1; also: in other assays of this panel Not Active means under 50% inhibition at 10 µM
T1 sequence (Q9Y271 whole entry): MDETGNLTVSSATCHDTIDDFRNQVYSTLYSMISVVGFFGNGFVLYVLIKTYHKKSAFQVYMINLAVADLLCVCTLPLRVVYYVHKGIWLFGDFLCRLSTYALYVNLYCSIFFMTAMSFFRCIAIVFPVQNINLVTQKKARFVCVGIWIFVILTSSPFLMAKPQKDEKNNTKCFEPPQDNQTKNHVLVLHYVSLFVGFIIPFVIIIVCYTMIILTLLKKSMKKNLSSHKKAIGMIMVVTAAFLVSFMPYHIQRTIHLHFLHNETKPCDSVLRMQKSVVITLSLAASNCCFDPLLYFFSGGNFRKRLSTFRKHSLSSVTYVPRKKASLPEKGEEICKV

Estrogen receptor = biological target: T2, Estrogen receptor (Homo sapiens, UniProt P03372); settings: sf9; also: in other assays of this panel Not Active means under 50% inhibition at 10 µM
T2 sequence (P03372 whole entry): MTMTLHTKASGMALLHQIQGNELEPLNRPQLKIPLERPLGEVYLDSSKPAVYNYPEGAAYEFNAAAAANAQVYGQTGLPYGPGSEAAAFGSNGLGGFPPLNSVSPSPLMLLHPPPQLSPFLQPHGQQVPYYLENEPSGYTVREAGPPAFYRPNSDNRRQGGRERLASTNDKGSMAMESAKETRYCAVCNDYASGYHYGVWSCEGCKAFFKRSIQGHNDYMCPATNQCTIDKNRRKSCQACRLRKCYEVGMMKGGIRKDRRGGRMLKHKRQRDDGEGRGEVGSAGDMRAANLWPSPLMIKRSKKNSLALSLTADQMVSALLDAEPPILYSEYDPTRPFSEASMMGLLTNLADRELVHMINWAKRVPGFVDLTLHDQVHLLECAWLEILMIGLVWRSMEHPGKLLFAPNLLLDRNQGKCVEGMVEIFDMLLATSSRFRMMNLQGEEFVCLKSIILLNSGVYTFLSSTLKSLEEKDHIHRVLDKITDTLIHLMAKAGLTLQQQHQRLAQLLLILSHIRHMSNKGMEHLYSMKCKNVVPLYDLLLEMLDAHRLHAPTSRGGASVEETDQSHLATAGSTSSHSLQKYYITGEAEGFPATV

[2] = biological target: T3, Muscarinic acetylcholine receptor M4 (Homo sapiens, UniProt P08173); assay type: cell membranes, CHO-K1, Membrane; settings: cho-k1; also: in other assays of this panel Not Active means under 50% inhibition at 10 µM
T3 sequence (P08173 whole entry): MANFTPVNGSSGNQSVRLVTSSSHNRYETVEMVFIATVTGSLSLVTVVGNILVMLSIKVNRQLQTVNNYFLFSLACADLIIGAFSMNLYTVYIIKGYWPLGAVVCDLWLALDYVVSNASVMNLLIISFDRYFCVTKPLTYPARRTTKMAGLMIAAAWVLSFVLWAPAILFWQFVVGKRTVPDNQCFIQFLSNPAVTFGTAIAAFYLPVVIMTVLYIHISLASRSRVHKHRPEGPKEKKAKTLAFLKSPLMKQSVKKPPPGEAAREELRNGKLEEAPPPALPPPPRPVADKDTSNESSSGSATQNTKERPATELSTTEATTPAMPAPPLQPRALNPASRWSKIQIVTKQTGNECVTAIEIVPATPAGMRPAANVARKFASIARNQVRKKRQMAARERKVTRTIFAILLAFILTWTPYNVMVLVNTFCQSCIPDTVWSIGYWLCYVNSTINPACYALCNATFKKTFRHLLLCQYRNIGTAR

[3] = biological target: T4, Alpha-1A adrenergic receptor (Rattus norvegicus, UniProt P43140); test: DRUGMATRIX: Alpha-1A adrenergic receptor radioligand binding (ligand: prazosin); assay type: cell membranes, Wistar, Submaxillary gland, Membrane; settings: Not Active = under 50% inhibition at 10 µM
T4 sequence (P43140 whole entry): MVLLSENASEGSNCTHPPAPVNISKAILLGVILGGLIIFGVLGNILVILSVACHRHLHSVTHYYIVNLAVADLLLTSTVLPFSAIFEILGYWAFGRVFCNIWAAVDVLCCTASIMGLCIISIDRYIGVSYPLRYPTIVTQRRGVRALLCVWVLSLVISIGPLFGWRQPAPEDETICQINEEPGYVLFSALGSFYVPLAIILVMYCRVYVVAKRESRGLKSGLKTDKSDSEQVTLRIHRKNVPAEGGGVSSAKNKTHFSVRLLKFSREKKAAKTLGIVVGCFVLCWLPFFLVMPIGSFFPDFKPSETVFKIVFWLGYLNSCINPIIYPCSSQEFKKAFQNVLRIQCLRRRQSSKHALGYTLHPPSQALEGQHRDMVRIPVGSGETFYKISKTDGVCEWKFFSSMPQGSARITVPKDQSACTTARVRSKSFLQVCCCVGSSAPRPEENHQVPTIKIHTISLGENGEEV

[4] = biological target: T5, Alpha-1B adrenergic receptor (Rattus norvegicus, UniProt P15823); test: DRUGMATRIX: Alpha-1B adrenergic receptor radioligand binding (ligand: prazosin); assay type: cell membranes, Wistar, Liver, Membrane; settings: Not Active = under 50% inhibition at 10 µM
T5 sequence (P15823 whole entry): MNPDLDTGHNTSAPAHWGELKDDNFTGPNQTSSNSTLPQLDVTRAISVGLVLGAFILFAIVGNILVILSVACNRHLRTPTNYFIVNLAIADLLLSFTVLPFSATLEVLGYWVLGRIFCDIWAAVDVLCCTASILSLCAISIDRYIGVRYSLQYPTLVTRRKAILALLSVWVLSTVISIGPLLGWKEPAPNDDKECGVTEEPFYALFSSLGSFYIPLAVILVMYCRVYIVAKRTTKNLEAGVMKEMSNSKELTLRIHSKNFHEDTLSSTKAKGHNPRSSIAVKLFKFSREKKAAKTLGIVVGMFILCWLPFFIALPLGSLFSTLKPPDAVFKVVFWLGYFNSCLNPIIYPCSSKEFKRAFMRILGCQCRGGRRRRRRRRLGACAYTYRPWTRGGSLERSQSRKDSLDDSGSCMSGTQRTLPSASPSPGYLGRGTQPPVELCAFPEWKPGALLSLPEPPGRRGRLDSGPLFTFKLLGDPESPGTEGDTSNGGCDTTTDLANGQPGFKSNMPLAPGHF

[5] = DRUGMATRIX: Nicotinic Acetylcholine radioligand binding (ligand: [125I] Epibatidine); assay type: cell membranes, Membrane; settings: imr-32; Not Active = under 50% inhibition at 10 µM
[6] = biological target: C-C chemokine receptor type 5 (Homo sapiens, UniProt P51681); assay type: cell membranes, HEK293, Membrane; settings: hek293; also: in other assays of this panel Not Active means under 50% inhibition at 10 µM
C-C chemokine receptor type 5, sequence (P51681 whole entry): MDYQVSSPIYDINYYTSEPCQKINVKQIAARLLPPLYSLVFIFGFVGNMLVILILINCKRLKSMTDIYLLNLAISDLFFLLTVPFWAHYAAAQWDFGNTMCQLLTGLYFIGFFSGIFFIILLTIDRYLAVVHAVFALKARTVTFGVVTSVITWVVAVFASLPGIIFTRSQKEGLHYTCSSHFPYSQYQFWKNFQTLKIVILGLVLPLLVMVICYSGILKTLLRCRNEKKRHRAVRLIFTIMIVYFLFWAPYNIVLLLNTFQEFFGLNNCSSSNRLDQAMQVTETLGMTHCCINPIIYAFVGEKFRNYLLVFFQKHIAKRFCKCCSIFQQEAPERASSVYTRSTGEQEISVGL

[7] = biological target: Sodium-dependent noradrenaline transporter (Homo sapiens, UniProt P23975); test: DRUGMATRIX: Norepinephrine Transporter radioligand binding (ligand: [125I] RTI-55); assay type: cell membranes, MDCK, Membrane; settings: mdck; Not Active = under 50% inhibition at 10 µM
Sodium-dependent noradrenaline transporter, sequence (P23975 whole entry): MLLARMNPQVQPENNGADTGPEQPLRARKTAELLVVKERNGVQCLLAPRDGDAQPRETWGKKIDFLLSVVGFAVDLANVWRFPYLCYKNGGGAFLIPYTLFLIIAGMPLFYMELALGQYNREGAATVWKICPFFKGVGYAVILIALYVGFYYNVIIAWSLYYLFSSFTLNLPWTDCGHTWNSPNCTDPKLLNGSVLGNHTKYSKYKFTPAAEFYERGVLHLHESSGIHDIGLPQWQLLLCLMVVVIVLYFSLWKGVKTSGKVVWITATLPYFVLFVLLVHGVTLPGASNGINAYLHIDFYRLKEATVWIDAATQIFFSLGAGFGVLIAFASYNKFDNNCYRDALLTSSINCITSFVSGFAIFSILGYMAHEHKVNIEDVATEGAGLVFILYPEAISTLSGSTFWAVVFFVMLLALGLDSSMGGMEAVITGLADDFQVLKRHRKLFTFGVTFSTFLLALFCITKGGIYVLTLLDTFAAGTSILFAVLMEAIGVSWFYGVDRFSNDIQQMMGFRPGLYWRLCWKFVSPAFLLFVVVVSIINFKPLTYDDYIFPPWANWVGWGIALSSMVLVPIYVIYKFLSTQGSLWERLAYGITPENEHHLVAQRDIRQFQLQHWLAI

CADMIUM DICHLORIDE
Not Active: IC50 [1] | Ki [1] | IC50 (Estrogen receptor) | Ki (Estrogen receptor) | IC50 [2] | Ki [2] | IC50 [3] | Ki [3] | IC50 [4] | Ki [4] | IC50 [5] | Ki [5] | IC50 [6] | Ki [6] | IC50 [7] | Ki [7]

Cc1nccn1CC1CCc2c(c3ccccc3n2C)C1=O (stereo not given) [ONDANSETRON]
Not Active: IC50 [1] | IC50 (Estrogen receptor) | IC50 [2] | IC50 [3] | IC50 [4] | IC50 [5] | Ki [5] | IC50 [6] | IC50 [7]

CCCCOc1ccc(OCCCN2CCOCC2)cc1 [PRAMOXINE]
Not Active: IC50 [1] | IC50 (Estrogen receptor) | IC50 [2] | IC50 [3] | IC50 [4] | IC50 [5] | Ki [5] | IC50 [6] | IC50 [7]

COc1cccc2c1C(=O)c1c(O)c3c(c(O)c1C2=O)C[C@@](O)(C(=O)CO)C[C@@H]3O[C@H]1C[C@H](N)[C@H](O)[C@H](C)O1 [DOXORUBICIN]
Not Active: IC50 [1] | IC50 (Estrogen receptor) | IC50 [2] | IC50 [3] | IC50 [4] | IC50 [5] | Ki [5] | IC50 [6] | IC50 [7]

C[C@H]1C[C@H]2[C@@H]3CCC4=CC(=O)C=C[C@]4(C)[C@@]3(Cl)[C@@H](O)C[C@]2(C)[C@@]1(O)C(=O)CO [BECLOMETHASONE]
Not Active: IC50 [1] | IC50 (Estrogen receptor) | IC50 [2] | IC50 [3] | IC50 [4] | IC50 [5] | Ki [5] | IC50 [6] | IC50 [7]

O=C(O)Cc1ccccc1Nc1c(Cl)cccc1Cl [DICLOFENAC]
Not Active: IC50 [1] | IC50 (Estrogen receptor) | IC50 [2] | IC50 [3] | IC50 [4] | IC50 [5] | Ki [5] | IC50 [6] | IC50 [7]

CC(C)[C@H]1CC[C@H](C(=O)N[C@H](Cc2ccccc2)C(=O)O)CC1 [NATEGLINIDE]
Not Active: IC50 [1] | IC50 (Estrogen receptor) | IC50 [2] | IC50 [3] | IC50 [4] | IC50 [5] | Ki [5] | IC50 [6] | IC50 [7]

Nc1c(CC(=O)O)cccc1C(=O)c1ccc(Br)cc1 [BROMFENAC]
Not Active: IC50 [1] | IC50 (Estrogen receptor) | IC50 [2] | IC50 [3] | IC50 [4] | IC50 [5] | Ki [5] | IC50 [6] | IC50 [7]

CC(=O)Nc1cccc(O)c1 [METACETAMOL]
Not Active: IC50 [1] | IC50 (Estrogen receptor) | IC50 [2] | IC50 [3] | IC50 [4] | IC50 [5] | Ki [5] | IC50 [6] | IC50 [7]

CCn1cc(C(=O)O)c(=O)c2cc(F)c(N3CCN(C)CC3)cc21 [PEFLOXACIN]
Not Active: IC50 [1] | IC50 (Estrogen receptor) | IC50 [2] | IC50 [3] | IC50 [4] | IC50 [5] | Ki [5] | IC50 [6] | IC50 [7]

COc1ccc2c(c1)c(CC(=O)O)c(C)n2C(=O)c1ccc(Cl)cc1 [INDOMETHACIN]
Not Active: IC50 [1] | IC50 (Estrogen receptor) | IC50 [2] | IC50 [3] | IC50 [4] | IC50 [5] | Ki [5] | IC50 [6] | IC50 [7]

C[C@H]1O[C@@H](O[C@H]2[C@@H](O)C[C@H](O[C@H]3[C@@H](O)C[C@H](O[C@H]4CC[C@@]5(C)[C@H](CC[C@@H]6[C@@H]5CC[C@]5(C)[C@@H](C7=CC(=O)OC7)CC[C@]65O)C4)O[C@@H]3C)O[C@@H]2C)C[C@H](O)[C@@H]1O [DIGITOXIN]
Not Active: IC50 [1] | IC50 (Estrogen receptor) | IC50 [2] | IC50 [3] | IC50 [4] | IC50 [5] | Ki [5] | IC50 [6] | IC50 [7]

S=C=Nc1cccc2ccccc12 [1-NAPHTHYLISOTHIOCYANATE]
Not Active: IC50 [1] | IC50 (Estrogen receptor) | IC50 [2] | IC50 [3] | IC50 [4] | IC50 [5] | Ki [5] | IC50 [6] | IC50 [7]

CCOC(=O)C1=C(C)NC(C)=C(C(=O)OC)C1c1cccc([N+](=O)[O-])c1 (stereo not given) [NITRENDIPINE]
Not Active: IC50 [1] | IC50 (Estrogen receptor) | IC50 [2] | IC50 [3] | IC50 [4] | IC50 [5] | Ki [5] | IC50 [6] | IC50 [7]

CC1=C(C(=O)O)N2C(=O)[C@@H](NC(=O)[C@H](N)c3ccccc3)[C@H]2SC1 [CEPHALEXIN ANHYDROUS]
Not Active: IC50 [1] | IC50 (Estrogen receptor) | IC50 [2] | IC50 [3] | IC50 [4] | IC50 [5] | Ki [5] | IC50 [6] | IC50 [7]

CN(C)/N=N/c1[nH]cnc1C(N)=O [DACARBAZINE]
Not Active: IC50 [1] | IC50 (Estrogen receptor) | IC50 [2] | IC50 [3] | IC50 [4] | IC50 [5] | Ki [5] | IC50 [6] | IC50 [7]

COc1ccc2c(c1)[C@]13CCCC[C@@H]1[C@H](C2)N(C)CC3 [DEXTROMETHORPHAN]
Not Active: IC50 [1] | IC50 (Estrogen receptor) | IC50 [2] | IC50 [3] | IC50 [4] | IC50 [5] | Ki [5] | IC50 [6] | IC50 [7]
